melting point	Structure (SMILES)
-37 °C	COc1ccccc1 [anisole]
58 °C	OCc1cccc(CO)c1 [1,3-benzenedimethanol]
84 °C	CCOC(=O)CCC(C)C1CCC2C3C=CC4CC(OC(C)=O)CCC4(C)C3CC(OC(C)=O)C12C (stereo unspecified) [ethyl 3,12-bis(acetyloxy)chol-6-en-24-oate]
80 °C	CC(C)CCCC(C)C1CCC2C3CCC4CCCCC4(C)C3CCC12C (stereo unspecified) [cholestane]
150 °C	C(=C\c1cccc(/C=C/c2ccccc2)c1)/c1ccccc1 [1,3-bis[(E)-2-phenylethenyl]benzene]
83 °C	O=C1c2ccccc2-c2ccccc21 [9-fluorenone]
56.9 °C	Cc1cc(Cl)nc2ccccc12 [2-Chloro-4-methylquinoline]
-122 °C	CCCOCCC [di-n-propyl ether]
142 °C	O=C(O)c1cccc([N+](=O)[O-])c1 [m-nitrobenzoic_acid]
10 °C	CCCCCc1ccc(-c2ccccc2)cc1 [4-n-pentylbiphenyl]
200 °C	COc1cc(Cc2cnc(N)nc2N)cc(OC)c1OC [trimethoprim]
-100 °C	CCC(C)(C)C [2,2-dimethylbutane]
114 °C	Cc1cc(C=O)cc(C)c1O [4-hydroxy-3,5-dimethylbenzaldehyde]
189 °C	NC(=O)c1cnccn1 [Pyrazinamide]
150 °C	O=[N+]([O-])c1ccccc1B(O)O [2-nitrobenzeneboronic acid]
26.5 °C	COC(=O)CCCCCCCCC(=O)OC [Dimethyl sebacate]
-8.5 °C	CCCCCC=CCC=CCCCCCCCC(=O)O (stereo in doubt) [linoleic acid]
5 °C	CCC(O)C(C)(C)C (stereo unspecified) [2,2-dimethyl-3-pentanol]
220 °C	O=C(O)c1ccccc1B(O)O [2-carboxybenzeneboronic acid]
-100 °C	CCOCCC(=O)OCC [ethyl 3-ethoxypropionate]
115 °C	CC(=O)Nc1ccccc1 [acetanilide]
71 °C	Clc1ccc2[nH]ccc2c1 [5-chloroindole]
21 °C	CCCCCCCCCCCCCCCCS [1-hexadecanethiol]
86 °C	O=C(O)c1c(F)cccc1C(F)(F)F [2-fluoro-6-(trifluoromethyl)benzoic acid]
76 °C	CCCCCCCCCCCCCCCCCCCCCC(=O)O [behenic acid]
114 °C	CC(C(=O)O)c1ccc(-c2ccccc2)c(F)c1 (stereo unspecified) [Flurbiprofen]
71 °C	O=S(=O)(Cl)Cc1cccc(Cl)c1 [3-chlorophenylmethanesulfonyl chloride]

Structure (SMILES)	melting point
O=C1Nc2ccc(Cl)cc2C(c2ccccc2Cl)=NC1O (stereo unspecified) [Lorazepam]	166 °C
COC(=O)[C@H]1[C@@H](OC(=O)c2ccccc2)C[C@@H]2CC[C@H]1N2C [cocaine]	98 °C
CC(Oc1ccc(Cl)cc1Cl)C(=O)O (stereo unspecified) [2-(2,4-dichlorophenoxy)propionic acid]	114 °C
C1CC[C@H]2CCCC[C@H]2C1 [cis-decalin]	-43 °C
O=[N+]([O-])c1cc(Cl)ccc1Cl [2,5-dichloronitrobenzene]	56 °C
NNC(=O)c1ccc(N)cc1 [4-aminobenzhydrazide]	228 °C
N#CCCCCCCCCC#N [sebaconitrile]	6 °C
O=[N+]([O-])c1ccccc1CCl [2-nitrobenzyl_chloride]	48 °C
CCOc1ccc(N)cc1 [p-ethoxyaniline]	4 °C
ClC(Cl)=C/C3C(C(=O)OCc2cccc(Oc1ccccc1)c2)C3(C)C (stereo unspecified) [Permethrin]	34 °C
Cc1cccc(C)c1[N+](=O)[O-] [2-nitro-m-xylene]	15 °C
C=COC(C)=O [vinyl acetate]	-100 °C
Nc1cccc(Cl)c1 [3-chloroaniline]	-10 °C
CN(C)c1ccc(N=O)cc1 [N,N-Dimethyl-4-nitrosoaniline]	86 °C
